Measured values reported in US20030105281A1, “Antimicrobial peptides isolated from mast cells” (priority 2000, published 2003).
≈ marks a conversion by molar mass, not a printed value. Residues, ends and D or L forms follow the SMILES beside them. No end group written: not given here.

Key:
Pseudomonas aeruginosa = tested on: Pseudomonas aeruginosa
Experimental: (§1) The antimicrobial activity of synthetic piscidin 1, piscidin 2 and piscidin 3 (P1, P2 and P3) was tested against a variety of different bacteria.

Aeromonas hydrophilia = assay type: cell-based
Experimental: as §1

Enterococcus gallinarum = assay type: cell-based
Experimental: as §1

Escherichia coli = tested on: Escherichia coli
Experimental: as §1

Staphylococcus aureus = tested on: Staphylococcus aureus
Experimental: as §1

Streptococcus iniae = assay type: cell-based
Experimental: as §1

[1] = tested on: Staphylococcus epidermidis; assay type: cell-based
Experimental: as §1

Enterococcus faecium = assay type: cell-based; settings: Case 00-1437, vancomycin resistant, vanA; MHB
Experimental: as §1

bacteria = test: Antibacterial activity of synthetic SEQ ID NO: 4 sequence; assay type: cell-based; settings: synthetic sequence with tryptophan as X
Description: [SEQ ID NO: 4], where X is tryptophan or beta-hydroxytryptophan. It is tentatively believed that beta-hydroxytryptophan is present as X in the natural sequence.

human pathogens = test: Activity of dimeric peptide against human pathogens; assay type: cell-based
Description: (§2) where CC is linked via a disulfide bridge.

[2] = assay type: cell-based
Description: as §2

Compound	MBC (Pseudomonas aeruginosa) [µg/mL]	MIC (Pseudomonas aeruginosa) [µg/mL]	MBC (Aeromonas hydrophilia) [µg/mL]	MIC (Aeromonas hydrophilia) [µg/mL]	MBC (Enterococcus gallinarum) [µg/mL]	MIC (Enterococcus gallinarum) [µg/mL]	other results
CC[C@H](C)[C@H](NC(=O)CNC(=O)[C@H](CCCNC(=N)N)NC(=O)[C@H](Cc1ccccc1)NC(=O)[C@@H](NC(=O)[C@H](Cc1c[nH]cn1)NC(=O)[C@H](Cc1c[nH]cn1)NC(=O)[C@H](Cc1ccccc1)NC(=O)[C@@H](N)Cc1ccccc1)[C@@H](C)CC)C(=O)N[C@H](C(=O)N[C@@H](Cc1c[nH]cn1)C(=O)N[C@H](C(=O)NCC(=O)N[C@@H](CCCCN)C(=O)N[C@H](C(=O)N[C@H](C(=O)N[C@@H](Cc1c[nH]cn1)C(=O)N[C@@H](CCCNC(=N)N)C(=O)N[C@@H](CC(C)C)C(=O)N[C@H](C(=O)N[C@H](C(=O)NCC(N)=O)[C@@H](C)O)C(C)C)[C@@H](C)CC)[C@@H](C)O)C(C)C)C(C)C [P1] (H-FFHHIFRGIVHVGKTIHRLVTG-NH2; N-terminus assumed)	12.5 (≈ 4.86 µM)	12.5 (≈ 4.86 µM)	0.79 to 1.57	0.79 to 1.57	12.5 (≈ 4.86 µM)	12.5 (≈ 4.86 µM)	–
CC[C@H](C)[C@H](NC(=O)CNC(=O)[C@H](CCCNC(=N)N)NC(=O)[C@H](Cc1ccccc1)NC(=O)[C@@H](NC(=O)[C@H](Cc1c[nH]cn1)NC(=O)[C@H](Cc1c[nH]cn1)NC(=O)[C@@H](NC(=O)[C@@H](N)Cc1ccccc1)[C@@H](C)CC)[C@@H](C)CC)C(=O)N[C@H](C(=O)N[C@@H](Cc1c[nH]cn1)C(=O)N[C@@H](C)C(=O)NCC(=O)N[C@@H](CCCNC(=N)N)C(=O)N[C@@H](CO)C(=O)N[C@H](C(=O)NCC(=O)N[C@@H](CCCNC(=N)N)C(=O)N[C@@H](Cc1ccccc1)C(=O)N[C@@H](CC(C)C)C(=O)N[C@H](C(=O)NCC(N)=O)[C@@H](C)O)[C@@H](C)CC)C(C)C [P3] (H-FIHHIFRGIVHAGRSIGRFLTG-NH2; N-terminus assumed)	25 (≈ 10 µM)	25 (≈ 10 µM)	1.57 to 3.13	1.57 to 3.13	50 (≈ 20.1 µM)	50 (≈ 20.1 µM)	MBC (Escherichia coli): 3.13 µg/mL (≈ 1.26 µM); MIC (Escherichia coli): 3.13 µg/mL (≈ 1.26 µM); MBC (Staphylococcus aureus): 3.13 µg/mL (≈ 1.26 µM); MIC (Staphylococcus aureus): 3.13 µg/mL (≈ 1.26 µM); MBC (Streptococcus iniae): 3.13 µg/mL (≈ 1.26 µM); MIC (Streptococcus iniae): 3.13 µg/mL (≈ 1.26 µM); MIC [1]: 3.13 µg/mL (≈ 1.26 µM); MIC (Enterococcus faecium): 3.13 to 6.25 µg/mL
FFRHLFRGAKAIFRGARQGXRAHKVVSRYRNRDVPETDNNQEEP [SEQ ID NO: 4, Endobiotic Family 2 peptide, about 5329 Da, X is tryptophan or beta-hydroxytryptophan]	–	–	–	–	–	–	antibacterial activity (bacteria): potent antibacterial activity
HVIGRFIHHFFCCFFHHIFRGIVH (cysteine pairing not given here; also: dimer) [SEQ ID NO: 6]	–	–	–	–	–	–	activity against several human pathogens (human pathogens): active against several human pathogens; hemolytic activity [2]: no detectable hemolytic activity
